Literature values in patent US9452178B1, “Acne formulations, treatments, and pressure sensitive patches for delivery of acne formulations” (SatisPharma, LLC, priority 2014, dated 2016).

Conditions: complex with polyvinylpyrrolidone; publication by Rhein et al

O=C(O)c1ccccc1O [salicylic acid]
permeation through the epidermis: prevents its permeation through the epidermis
